The values below come from US10676485B2, “Macrocyclic MCL-1 inhibitors and methods of use” (AbbVie Inc., priority 2017, dated 2020).

Read-outs that look alike come from different tables or passages of the source.

For orientation: IC50 means the point on the concentration scale where inhibition reaches its midpoint. In general, Ki refers to a measure of affinity in units of concentration, obtained from inhibition or displacement.

Test [1] has as its system AMO-1 human multiple myeloma tumor cell line. Description: AMO-1 cell viability assay (CellTiter-Glo). Conditions: AMO1, read-out: AMO-1 Viability IC50 (μM), 10% FBS, 24 hours of compound treatment. The test is classed as cell-based. Background: ATP-based viability assays read luminescence as a measure of living cells.
A further test concerns the target GST-MCL-1 (Homo sapiens (Human), UniProt Q07820). Description: TR-FRET MCL-1 binding assay (competition with probe F-Bak). On the procedure:
For the assay, an acoustic dispenser was used to prepare dilution series from 10 mM test compounds in 100% DMSO and directly transfer 160 nL into low volume 384-well assay plates. 8 μL of a protein/probe/antibody mix was then added to each well resulting in final concentrations listed below: Test compound: 11 three-fold dilutions beginning at 25 μM
The samples were then mixed on a shaker for 1 minute and incubated for an additional 2 hours at room temperature. For each assay plate, a probe/antibody and protein/antibody/probe mixture were included as a negative and a positive control, respectively. Fluorescence was measured on the Envision (Perkin Elmer) using a 340/35 nm excitation filter and 520/525 (F-Bak) and 495/510 nm (Tb-labeled anti-his antibody) emission filters. […] The TR-FRET assay can be performed in the presence of varying concentrations of human serum (HS) or fetal bovine serum (FBS). Compounds were tested both without HS and in the presence of 10% HS.

Test [2] relates to NCI-H929 human multiple myeloma tumor cell line. Nature of the test: NCI-H929 cell viability assay (CellTiter-Glo). It counts as cell-based. Particulars: NCI-H929, read-out: H929 Viability IC50 (μM), 10% FBS, 24 hours of compound treatment.
Procedure: In one exemplary set of conditions, NCI-H929 or AMO-1 (ATCC. Manassas, Va.) were plated 4.000 cells per well in 384-well tissue culture plates (Corning. Corning, N.Y.) in a total volume of 25 μL RPMI tissue culture medium supplemented with 10% fetal bovine serum (Sigma-Aldrich, St. Louis, Mo.) and treated with a 3-fold serial dilution of the compounds of interest with a Labcyte Echo from a final concentration of 10 μM to 0.0005 μM. Each concentration was tested in duplicate at least 3 independent times. A luminescent signal proportional to the number of viable cells following 24 hours of compound treatment was determined using the CellTiter-Glo® Luminescent Cell Viability Assay according to the manufacturer's recommendations (Promega Corp., Madison, Wis.). The plates were read in a Perkin Elmer Envision using a Luminescence protocol. To generate dose response curves the data is normalized to percent viability by setting the averages of the staurosporine (10 uM) and DMSO only control wells to 0% and (00)% viability respectively. The IC50 values for the compounds are generated by fitting the normalized data with Accelrys Assay Explorer 3.3 to a sigmoidal curve model using linear regression.
Where [3] appears, read: read-out: MCL-1 Binding Ki (nM, 10% HS), in the presence of 10% HS.
Where [4] appears, read: without HS, read-out: MCL-1 Binding Ki.

Chain of GST-MCL-1 (Q07820 whole entry): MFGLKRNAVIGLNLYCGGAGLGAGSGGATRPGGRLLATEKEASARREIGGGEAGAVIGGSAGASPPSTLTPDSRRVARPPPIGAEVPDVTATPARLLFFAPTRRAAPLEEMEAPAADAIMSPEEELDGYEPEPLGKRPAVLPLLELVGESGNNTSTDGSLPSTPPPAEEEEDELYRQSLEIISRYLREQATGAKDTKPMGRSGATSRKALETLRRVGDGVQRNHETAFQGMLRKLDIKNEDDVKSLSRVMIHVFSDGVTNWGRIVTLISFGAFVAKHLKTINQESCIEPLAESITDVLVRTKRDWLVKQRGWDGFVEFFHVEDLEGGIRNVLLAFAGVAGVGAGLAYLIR

For the molecule `Cc1c(Cl)c2c(Cl)c(C)c1-c1c(-c3ccc(F)cc3)sc3ncnc(c13)O[C@@H](C(=O)O)Cc1cc(ccc1OCc1cncc(-c3ccc(OC[C@H]4COCCO4)cc3)n1)OC[C@@H](CN1CCN(C)CC1)O2` [Example 16, (7R,16R)-19,23-dichloro-10-{[6-(4-{[(2R)-1,4-dioxan-2-yl]methoxy}phenyl)pyrazin-2-yl]methoxy}-1-(4-fluorophenyl)-20,22-dimethyl-16-[(4-methylpiperazin-1-yl)methyl]-7,8,15,16-tetrahydro-18,21-etheno-13,9-(metheno)-6,14,17-trioxa-2-thia-3,5-diazacyclononadeca[1,2,3-cd]indene-7-carboxylic acid], the results for the IC50 in test [1] and in test [2] were 0.245 nM and 0.000592 µM, respectively. The Ki at GST-MCL-1 (setting [3]) was determined as 0.83 nM; at GST-MCL-1 (setting [4]) it was 0.048 nM.

For the molecule `Cc1c(Cl)c2c(Cl)c(C)c1-c1c(C3CCCCC3)sc3ncnc(c13)O[C@@H](C(=O)O)Cc1cc(ccc1OCc1ccnc(-c3ccc(OC[C@@H]4COCCO4)cc3)n1)OC[C@@H](CN1CCN(C)CC1)O2` [Example 17, (7R,16R)-19,23-dichloro-1-cyclohexyl-10-{[2-(4-{[(2S)-1,4-dioxan-2-yl]methoxy}phenyl)pyrimidin-4-yl]methoxy}-20,22-dimethyl-16-[(4-methylpiperazin-1-yl)methyl]-7,8,15,16-tetrahydro-18,21-etheno-9,13-(metheno)-6,14,17-trioxa-2-thia-3,5-diazacyclononadeca[1,2,3-cd]indene-7-carboxylic acid], the IC50 was determined as 1 nM in test [1] and 0.00565 µM in test [2]. Also, the figures for the inhibition constant (Ki) on GST-MCL-1 (setting [3]) and at GST-MCL-1 (setting [4]) were 4.11 nM and 0.09 nM, respectively.

As to `COc1ccccc1-c1nccc(COc2ccc3cc2C[C@H](C(=O)O)Oc2ncnc4sc(C[C@@H]5COCCO5)c(c24)-c2c(C)c(Cl)c(c(Cl)c2C)O[C@H](CN2CCN(C)CC2)CO3)n1` [Example 18, (7R,16R)-19,23-dichloro-1-{[(2R)-1,4-dioxan-2-yl]methyl}-10-{[2-(2-methoxyphenyl)pyrimidin-4-yl]methoxy}-20,22-dimethyl-16-[(4-methylpiperazin-1-yl)methyl]-7,8,15,16-tetrahydro-18,21-etheno-13,9-(metheno)-6,14,17-trioxa-2-thia-3,5-diazacyclononadeca[1,2,3-cd]indene-7-carboxylic acid], the IC50 in test [1] worked out at 6.12 nM; in test [2], 0.00995 µM. Besides, the Ki worked out at 0.24 nM on GST-MCL-1 (setting [3]) and 0.111 nM on GST-MCL-1 (setting [4]).

For the molecule `COc1ccccc1-c1nccc(COc2ccc3cc2C[C@H](C(=O)O)Oc2ncnc4sc(C[C@H]5COCCO5)c(c24)-c2c(C)c(Cl)c(c(Cl)c2C)O[C@H](CN2CCN(C)CC2)CO3)n1` [Example 19, (7R,16R)-19,23-dichloro-1-{[(2S)-1,4-dioxan-2-yl]methyl}-10-{[2-(2-methoxyphenyl)pyrimidin-4-yl]methoxy}-20,22-dimethyl-16-[(4-methylpiperazin-1-yl)methyl]-7,8,15,16-tetrahydro-18,21-etheno-13,9-(metheno)-6,14,17-trioxa-2-thia-3,5-diazacyclononadeca[1,2,3-cd]indene-7-carboxylic acid], the values for the concentration for half-maximal inhibition (IC50) in test [1] and in test [2] were 9.74 nM and 0.0152 µM, respectively. Further, the Ki at GST-MCL-1 (setting [3]) came out at 0.64 nM; on GST-MCL-1 (setting [4]), 0.156 nM.

Take `Cc1c(Cl)c2c(Cl)c(C)c1-c1c(-c3ccc(F)cc3)sc3ncnc(c13)O[C@@H](C(=O)O)Cc1cc(ccc1OCc1ccnc(N3CCO[C@@H](COCC4COCCO4)C3)n1)OC[C@@H](CN1CCN(C)CC1)O2` (stereo partly drawn) [Example 20, (7R,16R)-19,23-dichloro-10-({2-[(2R)-2-{[(1,4-dioxan-2-yl)methoxy]methyl}morpholin-4-yl]pyrimidin-4-yl}methoxy)-1-(4-fluorophenyl)-20,22-dimethyl-16-[(4-methylpiperazin-1-yl)methyl]-7,8,15,16-tetrahydro-18,21-etheno-13,9-(metheno)-6,14,17-trioxa-2-thia-3,5-diazacyclononadeca[1,2,3-cd]indene-7-carboxylic acid]: the IC50 turned out to be 0.286 nM in test [1] and 0.000513 µM in test [2]. For the same molecule, the Ki is 0.47 nM at GST-MCL-1 (setting [3]) and 0.058 nM at GST-MCL-1 (setting [4]).

For the molecule `Cc1c(Cl)c2c(Cl)c(C)c1-c1c(-c3ccc(F)cc3)sc3ncnc(c13)O[C@@H](C(=O)O)Cc1cc(ccc1OCc1ccnc(-c3cccc(OC[C@H]4COCCO4)c3)n1)OC[C@@H](CN1CCN(C)CC1)O2` [Example 21, (7R,16R)-19,23-dichloro-10-{[2-(3-{[(2R)-1,4-dioxan-2-yl]methoxy}phenyl)pyrimidin-4-yl]methoxy}-1-(4-fluorophenyl)-20,22-dimethyl-16-[(4-methylpiperazin-1-yl)methyl]-7,8,15,16-tetrahydro-18,21-etheno-13,9-(metheno)-6,14,17-trioxa-2-thia-3,5-diazacyclononadeca[1,2,3-cd]indene-7-carboxylic acid], the IC50 turned out to be 0.0488 nM in test [1] and 0.000168 µM in test [2]. The values for the inhibitory constant (Ki) at GST-MCL-1 (setting [3]) and at GST-MCL-1 (setting [4]) were 1.01 nM and 0.011 nM, respectively.

`Cc1c(Cl)c2c(Cl)c(C)c1-c1c(-c3ccc(F)cc3)sc3ncnc(c13)O[C@@H](C(=O)O)Cc1cc(ccc1OCc1ccnc(-c3cccc(OC[C@@H]4COCCO4)c3)n1)OC[C@@H](CN1CCN(C)CC1)O2` [Example 22, (7R,16R)-19,23-dichloro-10-{[2-(3-{[(2S)-1,4-dioxan-2-yl]methoxy}phenyl)pyrimidin-4-yl]methoxy}-1-(4-fluorophenyl)-20,22-dimethyl-16-[(4-methylpiperazin-1-yl)methyl]-7,8,15,16-tetrahydro-18,21-etheno-13,9-(metheno)-6,14,17-trioxa-2-thia-3,5-diazacyclononadeca[1,2,3-cd]indene-7-carboxylic acid]: the IC50 in test [1] stood at 0.142 nM; in test [2], 0.000333 µM. In addition, the values for the Ki at GST-MCL-1 (setting [3]) and at GST-MCL-1 (setting [4]) were 0.89 nM and 0.016 nM, respectively.

For the molecule `Cc1c(Cl)c2c(Cl)c(C)c1-c1c(-c3ccc(F)cc3)sc3ncnc(c13)O[C@@H](C(=O)O)Cc1cc(ccc1OCc1nccc(-c3ccc(OC[C@H]4COCCO4)cc3)n1)OC[C@@H](CN1CCN(C)CC1)O2` [Example 23, (7R,16R)-19,23-dichloro-10-{[4-(4-{[(2R)-1,4-dioxan-2-yl]methoxy}phenyl)pyrimidin-2-yl]methoxy}-1-(4-fluorophenyl)-20,22-dimethyl-16-[(4-methylpiperazin-1-yl)methyl]-7,8,15,16-tetrahydro-18,21-etheno-13,9-(metheno)-6,14,17-trioxa-2-thia-3,5-diazacyclononadeca[1,2,3-cd]indene-7-carboxylic acid], the half-inhibitory concentration (IC50) came to 3.15 nM in test [1] and 0.00849 µM in test [2]. In addition, the Ki was determined as 41 nM at GST-MCL-1 (setting [3]) and 4.98 nM at GST-MCL-1 (setting [4]).

As to `Cc1c(Cl)c2c(Cl)c(C)c1-c1c(-c3ccc(F)cc3)sc3ncnc(c13)O[C@@H](C(=O)O)Cc1cc(ccc1OCc1ccnc(OC[C@@H]3COCCO3)n1)OC[C@@H](CN1CCN(C)CC1)O2` [Example 24, (7R,16R)-19,23-dichloro-10-[(2-{[(2S)-1,4-dioxan-2-yl]methoxy}pyrimidin-4-yl)methoxy]-1-(4-fluorophenyl)-20,22-dimethyl-16-[(4-methylpiperazin-1-yl)methyl]-7,8,15,16-tetrahydro-18,21-etheno-9,13-(metheno)-6,14,17-trioxa-2-thia-3,5-diazacyclononadeca[1,2,3-cd]indene-7-carboxylic acid], the figures for the 50% inhibitory concentration (IC50) in test [1] and in test [2] were 0.687 nM and 0.00197 µM, respectively. Moreover, the Ki on GST-MCL-1 (setting [3]) stood at 0.38 nM; on GST-MCL-1 (setting [4]), 0.038 nM.

For `Cc1c(Cl)c2c(Cl)c(C)c1-c1c(-c3ccc(F)cc3)sc3ncnc(c13)O[C@@H](C(=O)O)Cc1cc(ccc1OCc1ccnc(OC[C@H]3COCCO3)n1)OC[C@@H](CN1CCN(C)CC1)O2` [Example 25, (7R,16R)-19,23-dichloro-10-[(2-{[(2R)-1,4-dioxan-2-yl]methoxy}pyrimidin-4-yl)methoxy]-1-(4-fluorophenyl)-20,22-dimethyl-16-[(4-methylpiperazin-1-yl)methyl]-7,8,15,16-tetrahydro-18,21-etheno-9,13-(metheno)-6,14,17-trioxa-2-thia-3,5-diazacyclononadeca[1,2,3-cd]indene-7-carboxylic acid], the half-inhibitory concentration (IC50) worked out at 0.629 nM in test [1] and 0.00188 µM in test [2]. The inhibitory constant (Ki) on GST-MCL-1 (setting [3]) came to 0.19 nM; at GST-MCL-1 (setting [4]), 0.003 nM.

Consider `Cc1c(Cl)c2c(Cl)c(C)c1-c1c(-c3ccc(F)cc3)sc3ncnc(c13)O[C@@H](C(=O)O)Cc1cc(ccc1OCc1ccnc(N3CCN(S(=O)(=O)CC4COCCO4)CC3)n1)OC[C@@H](CN1CCN(C)CC1)O2` (stereo partly drawn) [Example 26, (7R,16R)-19,23-dichloro-10-[(2-{4-[(1,4-dioxan-2-yl)methanesulfonyl]piperazin-1-yl}pyrimidin-4-yl)methoxy]-1-(4-fluorophenyl)-20,22-dimethyl-16-[(4-methylpiperazin-1-yl)methyl]-7,8,15,16-tetrahydro-18,21-etheno-13,9-(metheno)-6,14,17-trioxa-2-thia-3,5-diazacyclononadeca[1,2,3-cd]indene-7-carboxylic acid], for which the IC50 turned out to be 0.2 nM in test [1] and 0.000241 µM in test [2]. The Ki on GST-MCL-1 (setting [3]) was found to be 1 nM; at GST-MCL-1 (setting [4]), 0.104 nM.
